Reference: US20030008925A1, “Treatment of drug-induced sleepiness” (priority 1997, published 2003)

Columns and labels:
Assay type in all cases: in vivo, human
[1] = tested on: patient under morphine treatment; assay: Sleepiness evaluated on the Epworth scale in hospitalized patients under morphine treatment
Description: the Epworth scale, while ensuring the analgesic properties of morphine and the properties of antidepressant, anxiolytic or analgesic medicaments are maintained. The patient is thus re-established in a satisfactory relational life.
(§1) In order to illustrate the invention, but without limiting its scope, the results of observations made confidentially on patients in the context of hospitalization are reported below. The consent of the patients was obtained after the compassionate grounds of the prescription had been explained to them.

[2] = Body weight (nutritional recovery) of patient; conditions: Case 1; in 10 days, under Moscontin plus Modiodal 200 mg
Description: Given the progression of painful phenomena, at the end of October 1997 the patient is hospitalized. At this point in time the dosage of Moscontin® is 100 mg twice every 24 hours, their EVA score is 60, and their sleepiness evaluated on the Epworth scale is 20. The Moscontin® is increased to 160 mg twice every 24 hours. After stabilization of the analgesic level at an EVA score of 30, treatment with Modiodal®, initially in a dosage of 100 mg and then rapidly 200 mg, is initiated. This dosage allows their Epworth score to drop below 10. This quality of awakening has enabled them to resume family relationships of a better quality. The efficacy of the analgesia and their better vigilance level has enabled them to take accompanied walks. A nutritional recovery manifesting itself by a weight increase of 2 kg in 10 days is also to be noted in this patient.

[3] = tested on: patient under morphine treatment; assay: Pain rating on the EVA scale in patients
Description: as §1

[4] = Case 2, Skenan doses doubled combined with 200 mg Modiodal
[5] = Case 5, morphine treatment at home (oral)

In the case of `NC(=O)C[S+]([O-])C(c1ccccc1)c1ccccc1` (stereo not drawn) [Modiodal®, benzhydrylsulphinyl-acetamide], the Epworth score ([1]; Case 1, Modiodal 100 mg then 200 mg, with Moscontin 160 mg twice every 24 hours) is reported as “below 10”, the “vigilance level rating (Epworth)” value [1, 4] is reported as “less than 10” and the “state of vigilance rating (Epworth)” value ([1]; Case 3, Modiodal 100 mg then 200 mg, with morphine 40 mg subcutaneous) is reported as 12. For the same molecule, the “sleepiness index after modafinil” value ([1]; Case 4, modafinil 300 mg achieved progressively, with Moscontin 100 mg x2) was 11, the “sleepiness index after modafinil” value ([1]; Case 5, modafinil 200 mg per day, with morphine 40 mg subcutaneous) was 15 and the “clinical results (in words)” value ([1]; about 200 to 400 mg per day, in 1 or 2 doses) was “very favourable results”. The “effect on morphine sleepiness and that associated with clonazepam (in words)” value ([1]; summary of pilot cases 1 to 5) was “efficacy”, the weight increase [2] was 2 kg and the “EVA (analgesic level)” value [3, 4] was 20.
With `O=C(C[S+]([O-])C(c1ccccc1)c1ccccc1)NO` (stereo not drawn) [Olmifon®, benzhydrylsulphinyl-acetohydroxamic acid] the “clinical results (in words)” value ([1]; about 1,200 to 1,800 mg per day, in 2 doses) was “very favourable results”.
In the case of `CN1CC[C@]23c4c5ccc(O)c4O[C@H]2[C@@H](O)C=C[C@H]3[C@H]1C5` [morphine], the “state of sleepiness on the Epworth scale” value ([1]; Case 3, morphine 40 mg subcutaneous, before Modiodal) is reported as 20, the “sleepiness (in words)” value [1, 5] is reported as “severe sleepiness” and the “sleepiness index before modafinil” value ([1]; Case 5, under morphine, before modafinil) is reported as 22. For the same molecule, the “pain rating on the EVA scale” value ([3]; Case 3, continuous subcutaneous morphine combined with oral clonazepam) was 30 and the EVA [3, 5] was 40.
